Values joined by “and” are separate entries in the source; they are usually repeats but may differ in a detail not shown here. Identical values can stand only once.
How the values were obtained:
[1] = system: selected panel of bacterial groups; test: qPCR of the other selected bacterial groups in colonic digesta; assay type: in vivo, pig; details: day 12
Procedure: (§1) At day 12, all the pigs were sacrificed following a lethal injection of Euthatal (pentobarbitone sodium BP-Merial Animal Ltd, Sandringham House, Essex, UK) at a rate of […] live body weight. In sterile conditions, the digestive tract was removed and tissue samples from colon were placed in sterile phosphate buffer saline (PBS) (Oxoid, Basingstoke, UK). The digesta samples were recovered aseptically from caecum and colon and transported on ice to proper storage conditions.
(§2) To evaluate the effect of feed additives on the microbiota, samples of digesta contents (approximately 10 g) were recovered from the caecum and colon of each animal in sterile conditions immediately after slaughter. […] Quantity and quality of DNA were assessed using a Nanodrop (Nanodrop, ND1000; Thermo Scientific, Wilmington, Del.).
(§3) A combined aliquot of bacterial genomic DNA from all animals were used for preparation of standard curves. […] Thermal cycling conditions used were similar to the condition described below for quantitative real-time PCR. Standard curves were subsequently generated by quantitative real-time PCR of serial dilutions of these amplicons using the same genus and species-specific primers to permit absolute quantification based on gene copy number (Lee et al., 2006). […] The dry matter (DM) of the digesta was determined after drying overnight at 103° C. […]

weaning piglets = test: Body weight and growth performance of weaned piglets over 12 days; assay type: in vivo, pig
Text: This study was designed in a completely randomized block design with 5 dietary groups. The dietary groups are as follows: 1) control diet, 2) control diet+ZnO, 3) control diet+casein hydrolysate, 4) control diet+(3 glucan and 5) control diet+casein hydrolysate+β glucan. The control diet used in this study was based on previous work by Walsh et al. (2013). The levels of casein hydrolysate used were based on previous experiment and the levels of β glucan, derived from yeast (S. cerevisiae), used were based on a previous study by Sweeney et al. (2012). Diets were formulated to contain similar concentrations of digestible energy (DE) (14.5 MJ/kg) and standardized ileal digestible (SID) lysine (12.5 g/kg) contents. All amino acids requirements were met relative to SID lysine (NRC, 1998). All diets were milled on site and fed in meal form for 12 days after weaning.
Forty weaned piglets [progeny of Landrace boars×(Large White×Landrace sow)] were weighed and blocked on the basis of initial live body weight (7.3±0.2 kg) and assigned to 1 of the 5 dietary treatment groups (n=8). Piglets were weighted individually at the beginning of the experiment (day 0=day of weaning), day 6 and day 12. The piglets were housed in groups of two on fully slatted floors (1.68×1.22 m). The ambient environmental temperature within the house was thermostatically controlled at 30° C. The feed was available ad libitum and water was available via nipple drinkers. Feed was available up to the final weighing and all remaining feed was weighed back for the purpose of calculating feed efficiency.
The current study was a complete randomised design experiment and data analysed using the general linear model procedure of the Statistical Analysis Institute (SAS, 2004). The individual pen represented the experimental unit for the performance analysis. All the data were checked initially for normality using the PROC univariate procedure in SAS (2004). The microbial counts were log transformed before statistical analysis. Probability values of less than 0.05 were used as the criterion for statistical significance. Intercorrelations between cytokines and cytokine regulatory genes was analysed in a correlation matrix using PASW 18 (SPSS for Windows, […]; SPSS, Chicago, Ill.) and the Pearson's r value greater than 0.400 was considered to be positively correlated. All results are presented in the tables as least square means±standard error of the means (SEM).

IL-1α = test: Cytokine gene expression in colonic tissue (qPCR): IL-1α; assay type: in vivo, porcine; details: day 12, normalised relative quantity
Procedure: (§4) Tissue samples were collected from the mesenteric side of the colon, rinsed with ice-cold sterile phosphate-buffered saline (Oxoid, Basingstoke, UK) and stripped of overlying smooth muscle. The samples were then cut into small pieces using a sterile scalpel blade and stored in 15 ml of RNAlater™ (Applied biosystems, Foster city, CA, USA) overnight followed by storage at −20° C. prior to RNA extraction. Total RNA was extracted from the colonic tissue samples using a GenElute Mammalian Total RNA Miniprep Kit (Sigma-Aldrich Corporation, St Louis, Mo., USA) according to the manufacturer's instructions. […] The total RNA was quantified and assessed for purity using the NanoDrop-ND1000 Spectrophotometer (Thermo Fisher Scientific Inc. MA, USA). The quality of the total RNA was determined by visualizing on an ethidium bromide stained 1% agarose gel. […]
(§5) qPCR was carried out to quantify the following two sets of targets: the first set of target are a selected panel of cytokine genes; Interleukins (IL-1a, IL-1β, IL-4, IL-6, IL-8, IL-10, IL-17A, IL-21), Interferon (IFN-γ), Tumor Necrosis Factor (TNFα), Transforming growth factor (TGF-β) and Forkhead box P3 (FOXP3). […]
(§6) Mean Ct values were converted to relative quantities using the formula, Relative quantity=(PCR efficiency) ΔCt, where ΔCt is the change in the Ct values of the sample relative to the highest expression (minimum Ct value). […]

Bacteroidetes = test: qPCR of bacterial groups in digesta: Bacteroidetes; assay type: in vivo, pig; details: caecal digesta, day 12
Procedure: as §1, §2, §3

IL-1β = test: Cytokine gene expression in colonic tissue (qPCR): IL-1β; assay type: in vivo, porcine; details: day 12, normalised relative quantity
Procedure: as §4, §5, §6

IL-17 = test: Cytokine gene expression in colonic tissue (qPCR): IL-17; assay type: in vivo, porcine; details: day 12, normalised relative quantity
Procedure: as §4, §5, §6

TGF-β = test: Cytokine gene expression in colonic tissue (qPCR): TGF-β; assay type: in vivo, porcine; details: day 12, normalised relative quantity
Procedure: as §4, §5, §6

Bifidobacteria spp. = test: qPCR of bacterial groups in digesta: Bifidobacteria; assay type: in vivo, pig; details: day 12
Procedure: as §1, §2, §3

weaning piglet = details: previous experiments, cited from earlier work
IL-8 = test: Cytokine gene expression in colonic tissue (qPCR): IL-8; assay type: in vivo, porcine; details: day 12, normalised relative quantity
Procedure: as §4, §5, §6

## [O]=[Zn] [ZnO, zinc oxide]
[1]
  bacterial copy numbers of any other bacterial group: No change
Weaning piglets; Day 0-12
  Gain to feed (Day 0-12): 0.26 kg/kg
  OADG (overall average daily gain) (Day 0-12): 0.10 kg/day
  OFI (overall feed intake) (Day 0-12): 0.37 kg/day
Weaning piglets; Weight 0-6
  Weight (kg) Weight 0-6: 7.53 kg
Weaning piglets; Weight 6-12 (end of experiment)
  Weight (kg) Weight 6-12: 8.64 kg and 8.64^a kg
IL-1α
  IL-1α expression: 0.006 RQ
Bacteroidetes
  abundance of Bacteroidetes copy numbers: 12.60 log10 bacteria/g DM digesta
IL-1β
  IL-1β expression: 0.010 RQ
IL-17
  IL-17 expression: 0.061 RQ
TGF-β
  TGF-β expression: 0.183 RQ
Bifidobacteria spp.; caecal digesta
  Bifidobacteria spp. numbers: 8.94 log10 bacteria/g DM digesta
Bifidobacteria spp.; colonic digesta
  abundance of Bifidobacteria copy numbers: 8.96 log10 bacteria/g DM digesta
Weaning piglet; weaning piglet gut
  anti-inflammatory activity in the weaning piglet gut: anti-inflammatory activity
Weaning piglet; weaning piglet
  overall growth performance parameters: improved
IL-8
  IL-8 expression: 0.003 RQ

From patent US20180325157A1, “A DIETARY SUPPLEMENT COMPRISING BETA-GLUCAN AND CASEIN HYDROLSATE FOR IMPROVING HEALTH AND GROWTH PERFORMANCE IN A MAMMAL” (University College Dublin, National University of Ireland, …, priority 2015, published 2018)
